From patent US20100168228A1, “NOVEL CHEMOTHERAPEUTIC AGENTS AGAINST INFLAMMATION AND CANCER” (RELIANCE LIFE SCIENCES PVT. LTD., priority 2006, published 2010)

Key:
Assay type in all cases: cell-based, human
Jurkat cells = test: Measurement of reactive oxygen intermediates (ROI) by flow cytometry; conditions: pretreated 1 h, TNF 1 nM 4 h
Protocol: The production of ROI in cells treated with TNFα or LPS was determined by flow cytometer as described by (Manna, S. K. et. al., J. Immunol. (1999) 162(3):1510-1518). Briefly Jurkat cells (5×10^5 cells in one ml) were incubated either with RPMI 1640 medium supplemented with 10% FBS or with complete media containing different concentrations of CAMVE for 1 h at 37° C. Cells were then stimulated with 1 nM of TNF for 4 h. After incubation, the cells were washed with D-PBS, and resuspended in 1 ml D-PBS. To detect ROI production, cells were exposed to Dihydrorhodamine 123 (5 mM stock) at a final concentration of 1 μM for 1 hr at 37° C. with moderate shaking (100 rpm) and then washed with D-PBS three times and resuspended in 1 ml of D-PBS. Rhodamine 123 fluorescence intensity resulting from Dihydrorhodamine 123 oxidation was measured by FACS Calibur (Becton Dickinson) with excitation at 488 nm and was detected between […]. Data was analyzed using Cell Quest software (Becton Dickinson).

caspase 3 = test: Caspase 3 activity assay, Jurkat lysates; conditions: 16 and 24 h exposure
Protocol: FIG. 14: Induction of Caspase 3 by compound 27. Jurkat cells were treated with indicated concentrations of the compound for 16 and 24 h and harvested in lysis buffer. Cellular lysates were incubated with Ac-DEVD-pNA as described in the “Materials and Methods” for 2 h at 37° C. Absorbance was recorded at 405 nm.
Caspase 3 activity assay: To evaluate caspase 3 activity, cell lysates were prepared after their respective treatments with the compounds. 200 μg of the cell lysates were incubated with 50 μM caspase 3 substrate […] in 100 μl reaction buffer (1% NP-40, […] tris-HCl, pH7.5, 137 mM NaCl, and 10% glycerol) and incubated for 2 h at 37° C. The release of chromophore pNA was monitored spectrophotometrically at 405 nm.

bax = bax mRNA, semi-quantitative RT-PCR, Jurkat; conditions: increasing concentrations
Protocol: FIG. 18: Effects of compound 27 on p53, Bax, bcl-2 mRNA levels in Jurkat cells. Expression of human p53, bax-α, bcl-2, was assayed by semi quantitative RT-PCR analysis with GAPDH as internal control. Cells were treated for 24 h with various doses of the compound (0, 50, 100 and 500 nM), then total RNA was extracted and submitted to RT-PCR.
RNA extraction: Total RNA was isolated using the standard TRIzol method (Gibco BRL). Briefly, 3×10^6 cells were treated with different concentrations of the compounds as indicated in the legends to Figures and after harvesting the cell pellet was resuspended in 1 ml of TRIzol with repeated pipetting. The homogenized sample was incubated at RT for 5 min to permit complete dissociation of the nucleoprotein complexes. […] of chloroform was added and the tubes were shaken vigorously for 15 sec by hand and then incubated at RT for 3 mins. The samples were then centrifuged at 10,000 RPM for 15 mins at 4° C. The aqueous phase was transferred to a fresh tube and 500 μl of Isopropyl alcohol was added, followed by incubation at RT for 10 mins. […]
Semi-quantitative reverse transcriptase (RT)-PCR: Changes in gene expression were verified by semi-quantitative RT-PCR using GAPDH as an internal normalization standard. 1 μg of total RNA (quantified by spectrophotometer) was used to reverse transcribe into cDNA. […]

HeLa cells = test: Apoptosis by PARP cleavage (FACS), HeLa; conditions: 100 nM, 24 h
Protocol: FIG. 19: Effect of compound 27 on the apoptosis in cells with different p53 status. Extent of apoptosis in different cells was measured by staining the cells for PARP cleavage followed by FACS analysis. Cells were treated with 100 nM of the compound for 24 h and the level of apoptosis was seen. Percentage apoptotic populations are represented as the M2 gated population.
PARP Cleavage Assay using Flow Cytometry: Extent of PARP cleavage is determined using polyclonal antibody specifically recognizing the 85 kDa fragment of cleaved PARP (NSB 699 Novus Biologicals) and can be used as a marker for detecting apoptotic cells. Treated cells were fixed with 70% chilled ethanol and permeabilized for 30 min at RT (PBS+0.5% BSA+0.02% NaN3+0.5% saponin) and stained with anti PARP-FITC (10 μl/10^6 cells) for one hour at RT. Cells were washed twice with wash buffer (PBS+1% heat inactivated FBS) and analysed using FACS.

Compound | TNF induced ROI generation (Jurkat cells) | caspase 3 activity (DVED-pNA cleavage) (caspase 3) | pro-apoptotic bax mRNA levels (bax) | level of apoptosis (PARP cleavage) (HeLa cells)
COC(=O)c1ccc(OC(=O)/C=C/c2ccc(O)c(O)c2)c(OC)c1 [compound 1, Methyl 4-{[(2E)-3-(3,4-dihydroxyphenyl)prop-2-enoyl]oxy}-3-methoxybenzoate] | suppressed on pretreatment of cells with CAMVE in a dose dependent fashion | – | – | –
COc1cc([C@@H]2Oc3c(OC)cc(/C=C/C(=O)O)cc3[C@H]2C(=O)O)ccc1O [compound 27, 5-[(E)-2-carboxyvinyl]-2β-(4-hydroxy-3-methoxyphenyl)-7-methoxy-2,3-dihydro-1-benzofuran-3α-carboxylic acid] | – | dose dependent increase in DVED-pNA cleavage | increased the pro-apoptotic bax mRNA levels | significant induction of apoptosis
